ChEMBL document CHEMBL1128172, “Structure-activity relationships of cyclic pentapeptide endothelin A receptor antagonists” (J Med Chem, 1995)
Each block holds one compound with its values, some of them ahead of it.

Target: T1, Endothelin-1 receptor (Sus scrofa, UniProt Q29010)
T1 sequence (Q29010 whole entry): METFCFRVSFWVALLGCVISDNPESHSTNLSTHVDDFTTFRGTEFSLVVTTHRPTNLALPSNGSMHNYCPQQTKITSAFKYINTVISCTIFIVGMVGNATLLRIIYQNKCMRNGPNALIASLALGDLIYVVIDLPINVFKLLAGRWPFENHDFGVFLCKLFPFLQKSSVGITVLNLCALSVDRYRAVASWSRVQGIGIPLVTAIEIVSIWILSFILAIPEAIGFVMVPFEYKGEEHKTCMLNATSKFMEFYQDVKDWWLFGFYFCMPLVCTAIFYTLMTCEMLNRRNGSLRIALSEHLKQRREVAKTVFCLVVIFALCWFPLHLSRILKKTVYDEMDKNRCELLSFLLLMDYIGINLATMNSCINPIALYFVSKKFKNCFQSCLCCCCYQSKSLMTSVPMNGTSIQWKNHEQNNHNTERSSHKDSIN
Assay: The compound was tested for binding inhibitory activity against Endothelin A receptor from porcine aortic smooth muscle membranes.

IC50 max: 32 nM
SMILES: CC(C)C[C@@H]1NC(=O)[C@@H](C(C)C)NC(=O)CN(C)C(=O)[C@@H](CC(=O)O)NC(=O)[C@@H](Cc2c[nH]c3ccccc23)NC1=O (single isomer, unassigned)

IC50 max: 530 nM
SMILES: CC(C)C[C@@H]1NC(=O)[C@@H](C(C)C)NC(=O)[C@H](C(C)C)NC(=O)[C@@H](CC(=O)O)NC(=O)[C@@H](Cc2c[nH]c3ccccc23)NC1=O (single isomer, unassigned)

IC50 max: 180 nM
SMILES: CC(C)C[C@@H]1NC(=O)[C@@H](C(C)C)NC(=O)[C@H](CC(=O)O)NC(=O)[C@@H](CC(=O)O)NC(=O)[C@@H](Cc2c[nH]c3ccccc23)NC1=O (single isomer, unassigned)

IC50 max: 150 nM
SMILES: CC(C)C[C@@H]1NC(=O)[C@@H](C(C)C)NC(=O)[C@H](CCCN=C(N)N)NC(=O)[C@@H](CC(=O)O)NC(=O)[C@@H](Cc2c[nH]c3ccccc23)NC1=O (single isomer, unassigned)

IC50 max: 260 nM
SMILES: CC(C)C[C@@H]1NC(=O)[C@@H](C)NC(=O)[C@@H]2CCCN2C(=O)[C@@H](CC(=O)O)NC(=O)[C@@H](Cc2c[nH]c3ccccc23)NC1=O (single isomer, unassigned)

IC50 max: 35 nM
SMILES: CC(C)C[C@H]1C(=O)N[C@H](Cc2c[nH]c3ccccc23)C(=O)N[C@H](CC(=O)O)C(=O)N2CCC[C@H]2C(=O)N[C@H](C(C)C)C(=O)N1C (single isomer, unassigned)

IC50 max: 34 nM
SMILES: CC(C)C[C@@H]1NC(=O)[C@@H](C(C)C)NC(=O)[C@H](C)N(C)C(=O)[C@@H](CC(=O)O)NC(=O)[C@@H](Cc2c[nH]c3ccccc23)NC1=O (single isomer, unassigned)

IC50 max: > 100000 nM
SMILES: CC(C)C[C@@H]1NC(=O)[C@@H](C(C)C)NC(=O)[C@H](C)NC(=O)[C@H](CCC(=O)O)NC(=O)[C@H](Cc2c[nH]c3ccccc23)NC1=O (single isomer, unassigned)

IC50 max: 110 nM
SMILES: CC(C)C[C@@H]1NC(=O)[C@@H](C(C)C)NC(=O)[C@H](C)NC(=O)[C@@H](CC(=O)O)NC(=O)[C@@H](Cc2c[nH]c3ccccc23)NC1=O (single isomer, unassigned)

IC50 max: 240 nM
SMILES: CC(C)C[C@@H]1NC(=O)[C@@H](C(C)C)NC(=O)[C@H](Cc2cnc[nH]2)NC(=O)[C@@H](CC(=O)O)NC(=O)[C@@H](Cc2c[nH]c3ccccc23)NC1=O (single isomer, unassigned)

IC50 max: 160 nM
SMILES: CC(C)C[C@@H]1NC(=O)[C@@H](C(C)C)NC(=O)CNC(=O)[C@@H](CC(=O)O)NC(=O)[C@@H](Cc2c[nH]c3ccccc23)NC1=O (single isomer, unassigned)

IC50 max: 130 nM
SMILES: CSCC[C@@H]1NC(=O)[C@@H](CC(=O)O)NC(=O)[C@@H](Cc2c[nH]c3ccccc23)NC(=O)[C@H](CC(C)C)NC(=O)[C@@H](C(C)C)NC1=O (single isomer, unassigned)

IC50 max: 250 nM
SMILES: CC(C)C[C@@H]1NC(=O)[C@@H](C(C)C)NC(=O)[C@H](CCCN)NC(=O)[C@@H](CC(=O)O)NC(=O)[C@@H](Cc2c[nH]c3ccccc23)NC1=O (single isomer, unassigned)

IC50 max: 140 nM
SMILES: CC(C)C[C@@H]1NC(=O)[C@@H](C(C)C)NC(=O)[C@H](CCC(=O)O)NC(=O)[C@@H](CC(=O)O)NC(=O)[C@@H](Cc2c[nH]c3ccccc23)NC1=O (single isomer, unassigned)

IC50 max: 390 nM
SMILES: COC(=O)C[C@H]1NC(=O)[C@@H](Cc2c[nH]c3ccccc23)NC(=O)[C@H](CC(C)C)NC(=O)[C@@H](C(C)C)NC(=O)[C@@H]2CCCN2C1=O (single isomer, unassigned)

IC50 max: 20 nM
SMILES: CC(C)C[C@@H]1NC(=O)[C@@H](C(C)C)NC(=O)[C@@H]2CSCN2C(=O)[C@@H](CC(=O)O)NC(=O)[C@@H](Cc2c[nH]c3ccccc23)NC1=O (single isomer, unassigned)

IC50 max: 240 nM
SMILES: CC(C)C[C@@H]1NC(=O)[C@@H](C(C)C)NC(=O)[C@H](CS)NC(=O)[C@@H](CC(=O)O)NC(=O)[C@@H](Cc2c[nH]c3ccccc23)NC1=O (single isomer, unassigned)

IC50 max: 330 nM
SMILES: CC(C)C[C@@H]1NC(=O)[C@@H](C(C)C)NC(=O)C(C)(C)NC(=O)[C@@H](CC(=O)O)NC(=O)[C@@H](Cc2c[nH]c3ccccc23)NC1=O (single isomer, unassigned)

IC50 max: 140 nM
SMILES: CC(C)C[C@@H]1NC(=O)[C@@H](C(C)C)NC(=O)[C@H](CS(=O)(=O)O)NC(=O)[C@@H](CC(=O)O)NC(=O)[C@@H](Cc2c[nH]c3ccccc23)NC1=O (single isomer, unassigned)

IC50 max: 270 nM
SMILES: CC(C)C[C@@H]1NC(=O)[C@@H](C(C)C)NC(=O)[C@H]([C@@H](C)O)NC(=O)[C@@H](CC(=O)O)NC(=O)[C@@H](Cc2c[nH]c3ccccc23)NC1=O (stereo in doubt)

The next lines start with the compound.

SMILES: CC(C)C[C@@H]1NC(=O)[C@@H](C(C)C)NC(=O)[C@H](Cc2ccccc2)NC(=O)[C@@H](CC(=O)O)NC(=O)[C@@H](Cc2c[nH]c3ccccc23)NC1=O (single isomer, unassigned)
IC50 max: 210 nM

SMILES: CC(C)[C@H]1NC(=O)[C@H](C)NC(=O)[C@@H](CC(=O)O)NC(=O)[C@@H](Cc2c[nH]c3ccccc23)NC(=O)[C@H](CC2CCCCC2)NC1=O (single isomer, unassigned)
IC50 max: 5600 nM

SMILES: CC(C)C[C@@H]1NC(=O)[C@@H](C(C)C)NC(=O)[C@H](Cc2c[nH]c3ccccc23)NC(=O)[C@@H](CC(=O)O)NC(=O)[C@@H](Cc2c[nH]c3ccccc23)NC1=O (single isomer, unassigned)
IC50 max: 150 nM

SMILES: CCCC[C@H]1NC(=O)[C@@H]2CCCN2C(=O)[C@@H](CC(=O)O)NC(=O)[C@@H](Cc2c[nH]c3ccccc23)NC(=O)[C@H](CC(C)C)NC1=O (single isomer, unassigned)
IC50 max: 120 nM

SMILES: CC(C)[C@H]1NC(=O)[C@H](C)NC(=O)[C@@H](CC(=O)O)NC(=O)[C@@H](Cc2c[nH]c3ccccc23)NC(=O)[C@@H]2CCCN2C1=O (single isomer, unassigned)
IC50 max: 8500 nM

SMILES: CC(C)C[C@@H]1NC(=O)[C@@H](C2=CCC=CC2)NC(=O)[C@@H]2CCCN2C(=O)[C@@H](CC(=O)O)NC(=O)[C@@H](Cc2c[nH]c3ccccc23)NC1=O (single isomer, unassigned)
IC50 max: 19 nM

SMILES: CC(C)C[C@@H]1NC(=O)[C@@H](C(C)C)NC(=O)[C@@H]2CCCN2C(=O)[C@@H](CC(=O)O)NC(=O)[C@@H](Cc2cn(C(=O)OC(C)(C)C)c3ccccc23)NC1=O (single isomer, unassigned)
IC50 max: 1500 nM

SMILES: CCC[C@H]1NC(=O)[C@@H]2CCCN2C(=O)[C@@H](CC(=O)O)NC(=O)[C@@H](Cc2c[nH]c3ccccc23)NC(=O)[C@H](CC(C)C)NC1=O (single isomer, unassigned)
IC50 max: 47 nM

SMILES: CC(C)C[C@@H]1NC(=O)[C@@H](C(C)C)NC(=O)[C@@H]2CCCN2C(=O)[C@@H](CC(=O)O)NC(=O)[C@@H](Cc2c[nH]cn2)NC1=O (single isomer, unassigned)
IC50 max: > 100000 nM

SMILES: CC(C)[C@H]1NC(=O)[C@H](CC(=O)O)NC(=O)[C@@H](CC(=O)O)NC(=O)[C@@H](Cc2c[nH]c3ccccc23)NC(=O)[C@H](C)NC1=O (single isomer, unassigned)
IC50 max: 2800 nM

SMILES: CCCC[C@@H]1NC(=O)[C@@H](C(C)C)NC(=O)[C@@H]2CCCN2C(=O)[C@@H](CC(=O)O)NC(=O)[C@@H](Cc2c[nH]c3ccccc23)NC1=O (single isomer, unassigned)
IC50 max: 62 nM

SMILES: CCC[C@@H]1NC(=O)[C@@H](C(C)C)NC(=O)[C@@H]2CCCN2C(=O)[C@@H](CC(=O)O)NC(=O)[C@@H](Cc2c[nH]c3ccccc23)NC1=O (single isomer, unassigned)
IC50 max: 33 nM

SMILES: CC(C)C[C@@H]1NC(=O)[C@@H](C(C)C)NC(=O)[C@@H]2CCCN2C(=O)[C@@H](CCO)NC(=O)[C@@H](Cc2c[nH]c3ccccc23)NC1=O (single isomer, unassigned)
IC50 max: 1700 nM

SMILES: CC(C)C[C@@H]1NC(=O)[C@@H](C(C)C)NC(=O)[C@@H]2CCCN2C(=O)[C@@H](CC(=O)O)NC(=O)[C@@H](Cc2ccccc2)NC1=O (single isomer, unassigned)
IC50 max: > 100000 nM

SMILES: CC(C)C[C@@H]1NC(=O)[C@@H](C(C)(C)S)NC(=O)[C@@H]2CCCN2C(=O)[C@@H](CC(=O)O)NC(=O)[C@@H](Cc2c[nH]c3ccccc23)NC1=O (single isomer, unassigned)
IC50 max: 49 nM

SMILES: CC[C@H](C)[C@@H]1NC(=O)[C@@H](C(C)C)NC(=O)[C@@H]2CCCN2C(=O)[C@@H](CC(=O)O)NC(=O)[C@@H](Cc2c[nH]c3ccccc23)NC1=O (stereo in doubt)
IC50 max: 230 nM
